Test results as given in patent publication US20230226214A1, “BIFUNCTIONAL BRIDGING COMPOSITIONS FOR VIRAL TRANSDUCTION” (Lycia Therapeutics, Inc., priority 2020, published 2023).

Assays:
[1] = target: T1, recombinant human CI-M6PR protein (Homo sapiens, UniProt P11717); test: M6PR binding ELISA of matuzumab conjugates; conditions: antibody conjugates of the ligand-linkers
T1 construct: purchased R&D 6418-GR-050
Procedure: Binding affinity of matuzumab conjugated to ligand-linkers for M6PR was determined by ELISA using the following protocol: Nunc black solid bottom MaxiSorp plates were allowed to incubate overnight at 4° C. coated with 1 μg/mL of recombinant human CI-M6PR protein (R&D, 6418-GR-050) in 50 μL PBS. The next day, coating was decanted and plates were washed 3× with PBS. Wells were blocked with 350 μL of 3% BSA-PBS for 1 hour at room temperature. […] 50 μL of diluted conjugates were added to the plate and allowed to incubate at room temperature for 2 hours. After incubation, solutions in plate were decanted and washed with 350 μL of 0.05% PBS-Tween20 three times, drying the plate each wash on a clean paper towel. 50 μL of peroxidase AffiniPure Mouse Anti-Human IgG (Jackson Immuno, 209-035-088) diluted in 3% BSA-PBS to 0.2 μg/mL was added to the plate and allowed to incubate for 1 hour at room temperature in the dark. After incubation, solutions in plate were decanted and washed with 350 μL of 0.05% PBS-Tween20 3 times, drying the plate each wash on a clean paper towel. […] 50 μL of QuantaBlu solution was added to wells and allowed to incubate for 5-10 minutes at room temperature. After incubation, plates were read on a Perkin Elmer EnVision using photometric 340 and Umbelliferone 460 filter sets for excitation and emission, respectively. Data analysis and non-linear curve-fitting was performed using GraphPad Prism.

[2] = mice, intravenous, 10 μg/mouse; serum rIgG1 at 0.5-24 hours; compared with Compound I-7 conjugate
Procedure: A pharmacokinetic analysis of the rIgG1 (anti-IgG2a) antibody conjugates described in the previous example was performed in mice. In particular, C57B6 mice were intravenously administered each rIgG1 antibody conjugate at 10 μg/mouse (5 mice per group). Blood was collected at 0.5, 1, 2, 6, and 24 hours and serum rIgG1 was analyzed using an ELISA kit (Abcam) according to the manufacturer's instructions. Samples were run across 3 different plates with unconjugated rIgG1 controls (UNLB-anti-IgG2a rIgG1) included on all 3 plates.

[3] = system: human Jurkat cells; test: Uptake of IgG2a-Alexa488 mediated by anti-IgG2a conjugates (flow cytometry); assay type: cell-based; conditions: 1 h and 24 h
Procedure: The anti-IgG2a conjugates were bound to IgG2a-Alexa488, as follows: equal molar ratios of anti-IgG2a and IgG2a-Alexa488 were added in tissue culture media for 30 minutes at room temperature. The resulting anti-IgG2a:IgG2a antibody-Alexa488 compositions were added to human Jurkat cells (100 k cells/50 ul per well, n=2), and Alexa488 fluorescence levels were measured (via Alexa488 measurement) at 1 hour and 24 hours by flow cytometry. Because Alexa488 accumulates in cells, this presents a way to measure total intracellular uptake by cells over time.

[4] = system: human HepG2 cells; test: Transduction efficiency of AAV8 particle conjugates in HepG2 cells (GFP); assay type: cell-based; conditions: increasing MOI, 72 hrs, compared with unconjugated AAV8
Procedure: Transduction efficiency of AAV8 particle conjugates was also measured in human HepG2 cells and compared to that of an unconjugated AAV-CMV-GFP control (“AAV8 GFP-UNLB”). HepG2 cells were transduced with increasing multiplicity of infection (MOI) of unconjugated AAV8, AAV8 conjugated to Compound I-7 (ITX-16590), and AAV conjugated to Compound I-124 (ITX-22701) or different molar rations of AAV8 conjugated to Compound I-124 (ITX-22701).
In performing the experiments described above, 2V6·11 cells (Elab Science) in DMEM (Gibco) with 10% fetal bovine serum (Gibco) were seeded onto 96-well plates (Nunc) at a concentration of 20 k cells/well 24 hours prior to infection. Jurkat cells (ATCC) in RPMI (Gibco) with 10% fetal bovine serum (Gibco) were seeded onto 96-well plates (Nunc) 1 h prior to transduction. HepG2 cells (ATCC) in EMEM (Gibco) with 10% fetal bovine serum (Gibco) were seeded onto 96-well plates (Nunc) 24 hours prior to infection. […]
After the incubation period, the medium was aspirated, the cells were washed with PBS and analyzed for GFP expression via flow cytometry on BioRad ZES Cell Analyzer (BioRad) or analyzed for luciferase levels using a luciferase assay kit (Promega) following manufacture's protocol and using a luminometer.

T1 sequence (P11717 41-1365 limits assumed): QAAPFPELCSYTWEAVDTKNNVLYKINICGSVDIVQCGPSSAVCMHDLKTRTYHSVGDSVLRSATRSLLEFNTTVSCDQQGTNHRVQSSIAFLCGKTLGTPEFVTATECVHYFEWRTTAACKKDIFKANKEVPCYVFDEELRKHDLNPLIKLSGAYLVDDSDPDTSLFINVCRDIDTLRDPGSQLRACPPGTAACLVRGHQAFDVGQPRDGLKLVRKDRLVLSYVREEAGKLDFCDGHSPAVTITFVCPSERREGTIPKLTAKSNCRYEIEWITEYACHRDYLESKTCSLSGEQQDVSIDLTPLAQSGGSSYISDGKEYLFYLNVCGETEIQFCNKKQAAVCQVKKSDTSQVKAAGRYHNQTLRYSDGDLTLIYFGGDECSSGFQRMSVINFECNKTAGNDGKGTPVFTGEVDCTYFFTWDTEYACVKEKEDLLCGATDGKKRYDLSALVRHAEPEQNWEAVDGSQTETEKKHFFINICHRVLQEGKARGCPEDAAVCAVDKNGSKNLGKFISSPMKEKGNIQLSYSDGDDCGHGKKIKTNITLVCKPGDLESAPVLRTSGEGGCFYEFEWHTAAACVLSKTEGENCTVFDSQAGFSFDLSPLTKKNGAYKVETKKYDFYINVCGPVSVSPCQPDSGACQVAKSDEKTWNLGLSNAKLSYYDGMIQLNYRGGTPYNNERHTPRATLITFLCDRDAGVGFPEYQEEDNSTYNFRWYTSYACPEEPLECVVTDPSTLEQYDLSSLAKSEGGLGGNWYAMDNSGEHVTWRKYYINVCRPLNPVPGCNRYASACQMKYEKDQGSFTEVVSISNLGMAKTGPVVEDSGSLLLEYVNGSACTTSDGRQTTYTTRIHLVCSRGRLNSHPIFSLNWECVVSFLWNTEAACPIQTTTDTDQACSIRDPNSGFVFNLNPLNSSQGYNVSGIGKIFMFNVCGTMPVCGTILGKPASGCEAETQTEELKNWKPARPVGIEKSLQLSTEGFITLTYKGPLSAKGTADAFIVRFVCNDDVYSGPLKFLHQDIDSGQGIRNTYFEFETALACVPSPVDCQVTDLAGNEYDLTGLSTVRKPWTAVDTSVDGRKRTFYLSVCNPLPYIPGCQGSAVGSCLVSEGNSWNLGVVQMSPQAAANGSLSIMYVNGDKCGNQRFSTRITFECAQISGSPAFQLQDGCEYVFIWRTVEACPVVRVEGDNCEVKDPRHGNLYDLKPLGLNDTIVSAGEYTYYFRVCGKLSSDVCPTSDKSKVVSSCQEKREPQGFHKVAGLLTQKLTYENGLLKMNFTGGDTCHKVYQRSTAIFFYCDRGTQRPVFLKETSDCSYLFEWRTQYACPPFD

O=C(CCN1C(=O)C=CC1=O)NCCOCCOCCOCCn1cc(CCO[C@H]2O[C@H](CCP(=O)(O)O)[C@@H](O)[C@H](O)[C@@H]2O)nn1 [Compound I-10]
binding affinity for M6PR [1]: weaker binding affinity to M6PR compared to Compound I-7
half-life in serum [2]: longer half-life

O=C(CCOCCOCCOCCN(CCOCCOCCOCCn1cc(CCO[C@H]2O[C@H](CCP(=O)(O)O)[C@@H](O)[C@H](O)[C@@H]2O)nn1)CCOCCOCCOCCn1cc(CCO[C@H]2O[C@H](CCP(=O)(O)O)[C@@H](O)[C@H](O)[C@@H]2O)nn1)Oc1c(F)c(F)c(F)c(F)c1F [Compound I-12]
binding affinity for M6PR [1]: weaker binding affinity to M6PR compared to Compound I-7
half-life in serum [2]: longer half-life
intracellular uptake (Alexa488 fluorescence) [3]: sufficiently robust uptake

O=C(CCOCCn1cc(CCO[C@H]2O[C@H](CCP(=O)(O)O)[C@@H](O)[C@H](O)[C@@H]2O)nn1)Oc1c(F)c(F)c(F)c(F)c1F [Compound I-11]
binding affinity for M6PR [1]: weaker binding affinity to M6PR compared to Compound I-7
half-life in serum [2]: longer half-life
intracellular uptake (Alexa488 fluorescence) [3]: sufficiently robust uptake

CC(=O)N[C@H]1[C@H](OCCCCC(=O)NCCCNC(=O)CCOCC(COCCC(=O)NCCCNC(=O)CCCCO[C@@H]2O[C@H](CO)[C@H](O)[C@H](O)[C@H]2NC(C)=O)(COCCC(=O)NCCCNC(=O)CCCCO[C@@H]2O[C@H](CO)[C@H](O)[C@H](O)[C@H]2NC(C)=O)NC(=O)CCCCCCCCCCC(=O)Oc2c(F)c(F)c(F)c(F)c2F)O[C@H](CO)[C@H](O)[C@@H]1O [Compound I-124]
transduction efficiency (percentage of GFP positive cells, MFI) [4]: greater transduction efficiency than unconjugated AAV8

O=C(CCOCCOCCOCCOCCOCCOCCOCCOCCn1cc(CCO[C@H]2O[C@H](CCP(=O)(O)O)[C@@H](O)[C@H](O)[C@@H]2O)nn1)Oc1c(F)c(F)c(F)c(F)c1F [Compound I-9]
intracellular uptake (Alexa488 fluorescence) [3]: sufficiently robust uptake

B1: Compound I-11d4: "matuzumab-Compound I-11 (d4)" conjugate tested for M6PR binding (conjugate)
heavy: QVQLVQSGAEVKKPGASVKVSCKASGYTFTSHWMHWVRQAPGQGLEWIGEFNPSNGRTNYNEKFKSKATMTVDTSTNTAYMELSSLRSEDTAVYYCASRDYDYAGRYFDYWGQGTLVTVSSASTKGPSVFPLAPSSKSTSGGTAALGCLVKDYFPEPVTVSWNSGALTSGVHTFPAVLQSSGLYSLSSVVTVPSSSLGTQTYICNVNHKPSNTKVDKKVEPKS
light: DIQMTQSPSSLSASVGDRVTITCSASSSVTYMYWYQQKPGKAPKLLIYDTSNLASGVPSRFSGSGSGTDYTFTISSLQPEDIATYYCQQWSSHIFTFGQGTKVEIKRTVAAPSVFIFPPSDEQLKSGTASVVCLLNNFYPREAKVQWKVDNALQSGNSQESVTEQDSKDSTYSLSSTLTLSKADYEKHKVYACEVTHQGLSSPVTKSFNRGE
modifications: left off: a dimerising Fc or GST
binding affinity for M6PR [1]: lowest
